Source: PMC11589483, “Preparation and anti-colon cancer effect of a novel curcumin analogue (CA8): in vivo and in vitro evaluation” (Frontiers in Pharmacology, 2024)
Where two headings read alike, the source gives them in different places.

Tests used:
[1] = Solubility in water by HPLC; type: physicochemical; conditions: 25°C, mass of solute dissolved at saturation in 100 g of solvent
Procedure: The solubility of the synthesized compounds in water was determined using high performance liquid chromatography (HPLC). First, 1.000 g of each compound was accurately weighed, placed in 100 g of water, and stirred at 25°C for a period of time. Then, the reaction system was allowed to stand for 1 h. The supernatant was quantitatively taken, diluted with methanol to volume, and centrifuged, and the solubility was determined using HPLC.

lung cancer cells A549 = assay: MTT antiproliferative assay, A549; type: cell-based; conditions: Homo sapiens
Procedure: (§1) The human cancer cell lines A549, HepG2, MCF-7, Caco-2, and HeLa and the normal human liver cell line LO2 were all obtained from Shanghai Cell Bank of China. All cells were cultured in RPMI 1640 or DMEM supplemented with 10% fetal bovine serum, 100 U/mL penicillin, and 100 μg/mL streptomycin and incubated at 37°C under 5% CO2 (HEPA incubator class100 Thermo company). The medium was replaced three times a week. Cells used in all were in the exponential growth phase.
(§2) The cell inhibition rate was evaluated using the MTT assay. Briefly, cells were seeded in a 96-well plate at a density of 3–4 × 10^3 cells per well and incubated at 37°C for 24 h. The MCACs to be tested were dissolved in dimethyl sulfoxide (DMSO, Merck, Germany) and diluted to five concentrations (3.75, 7.5, 15, 30, 60 μM/L) with RPMI 1640 medium, with each dose analyzed in quadruplicate. The concentration of DMSO was always maintained below 1‰, a concentration that is nontoxic to cells. After incubation for 24 or 48 h, MTT reagent (5 mg/mL) was added to each well and the samples were incubated for 3 h at 37°C in the dark. The absorbance of formazan crystals dissolved in 150 µL of DMSO was measured at 570 nm using a microplate reader to identify the cytotoxic effect of the analogues.

liver cancer cells HepG2 = assay: MTT antiproliferative assay, HepG2; type: cell-based; conditions: Homo sapiens
Procedure: as §1, §2

[2] = tested on: breast cancer cells MCF-7; assay: MTT antiproliferative assay, MCF-7; type: cell-based; conditions: Homo sapiens
Procedure: as §1, §2

[3] = tested on: cervical cancer cells HeLa; assay: MTT antiproliferative assay, HeLa; type: cell-based; conditions: Homo sapiens
Procedure: as §1, §2

[4] = tested on: colon cancer cells Caco-2; assay: MTT antiproliferative assay, Caco-2; type: cell-based, human; conditions: for IC50: Homo sapiens, read-out: IC50 Caco2; for SI Caco2: logarithm of ratio IC50 LO2 / IC50 cancer cells
Procedure: as §1, §2

[5] = tested on: normal human liver cell line LO2; assay: MTT assay, normal liver cells LO2; type: cell-based
Procedure: as §1, §2

[6] = tested on: human cancer cell lines A549, HepG2, MCF-7, Caco-2, and HeLa; assay: MTT assay, panel of human cancer cell lines (statements in words); type: cell-based; conditions: five cancer cell lines, after 24 h of treatment, compared to CU
Procedure: as §1, §2

Caco-2 xenograft tumors = assay: In vivo anticancer activity, Caco-2 xenograft; conditions: Caco-2 xenograft; CA8 100 mg/kg, CU 100 mg/kg, tegafur 50 mg/kg, gavage every other day
Procedure: Twenty 5-week-old male BALB nude mice purchased from SPF (Beijing) Biotechnology Co., Ltd. were used for the in vivo pharmacodynamic experiment of CA8. Caco-2 cells (6 × 10^6 cells in 100 μL PBS) were harvested and subcutaneously injected into the right hip of the mice. Then, they were divided into four groups when the tumor volume reached 100 mm^3 and treated with saline, CU (100 mg/kg), tegafur (50 mg/kg), or CA8 (100 mg/kg) via gavage every other day. Tumor size and body weight were measured and recorded every other day. At the end of the experiment, the mice were sacrificed and tumors were harvested and weighed. Tumor volumes were calculated by measuring length (L) and width (W) according to the following formula: V = 0.5 × L × W^2. The tumor tissue was embedded in paraffin, cut into slices, stained with HE, and observed under a light microscope.

SMILES	Solubility [1] [mg/100g]	IC50 (lung cancer cells A549; A549, 24 h) [µM]	IC50 (lung cancer cells A549; A549, 48 h) [µM]	IC50 (liver cancer cells HepG2; HepG2, 24 h) [µM]	IC50 (liver cancer cells HepG2; HepG2, 48 h) [µM]	IC50 ([2]; MCF7, 24 h) [µM]	IC50 ([2]; MCF7, 48 h) [µM]	IC50 ([3]; 24 h) [µM]	IC50 ([3]; 48 h) [µM]	IC50 ([4]; Caco-2, 24 h) [µM]	IC50 ([4]; Caco-2, 48 h) [µM]	IC50 ([5]; 24 h) [µM]	IC50 ([5]; 48 h) [µM]	cytotoxicity [6]	SI Caco2 ([4]; 24 h)	SI Caco2 ([4]; 48 h)	inhibitory effect on tumor growth (Caco-2 xenograft tumors)
COc1ccc(/C=C/C(=O)CC(=O)/C=C/c2ccc(OC)nc2)cn1 [CA1]	0.07	> 60	28.6 ± 2.2	> 60	46.9 ± 2.6	> 60	47.3 ± 2.1	> 60	56.5 ± 3.7	> 60	> 60	> 60	57.6 ± 4.83	low toxicity			
COc1cc(/C=C2\CN(C)C/C(=C\c3ccc(OC4CCCCO4)c(OC)c3)C2=O)ccc1OC1CCCCO1 (stereo not shown) [CA9]	1.37	21.4 ± 2.7	11.7 ± 0.5	11.2 ± 0.5	10.7 ± 1.6	22.2 ± 1.8	10.9 ± 1.3	8.4 ± 0.2	4.3 ± 0.1	3 ± 0.6	2.09 ± 0.32	15 ± 0.95	5 ± 0.09		0.70	0.38	
O=c1[nH]c(=O)n(C2CCCO2)cc1F (stereo not shown) [tegafur, reference compound]																	CA8 > tegafur > CU
Cc1cc(/C=C2\CN(C(C)C)C/C(=C\c3cc(C)c(O)c(C)c3)C2=O)cc(C)c1O [CA7]	3.29	36.1 ± 4.76	43.8 ± 5.13	22.7 ± 1.37	2.71 ± 0.49	54.2 ± 17.3	18.2 ± 0.52	5.26 ± 0.49	1.26 ± 0.18	44.4 ± 7.38	7.44 ± 0.49	39.2 ± 1.67	8.4 ± 0.41		−0.05	0.05	
COc1ccc(/C=C2\CN(C(C)C)C/C(=C\c3ccc(OC)nc3)C2=O)cn1 [CA5]	0.22	28 ± 0.77	34.7 ± 1.89	> 60	2.18 ± 0.4	30.1 ± 3.36	4.94 ± 1.42	2.35 ± 0.09	1.81 ± 0.36	14.7 ± 0.73	4.87 ± 0.19	9.8 ± 0.51	6.9 ± 0.46		−0.17	0.15	
Cc1cc(/C=C2\CNC/C(=C\c3cc(C)c(O)c(C)c3)C2=O)cc(C)c1O [CA6]	15.04	> 60	> 60	50.4 ± 15.1	9.28 ± 0.68	> 60	> 60	> 60	> 60	> 60	> 60	> 60	> 60	low toxicity			
COc1ccc(/C=C2\CN(C)C/C(=C\c3ccc(OC)nc3)C2=O)cn1 [CA4]	2.63	22.9 ± 2.7	12.5 ± 0.2	2.63 ± 0.38	1.95 ± 0.2	17 ± 1.6	7.8 ± 0.7	4.6 ± 0.5	2.7 ± 0.5	7.7 ± 1.8	9.4 ± 1	6.11 ± 0.33	2.5 ± 0.13		−0.10	−0.59	
COc1ccc(/C=C/C(=O)/C=C/c2ccc(OC)nc2)cn1 [CA2]	0.42	25.9 ± 1.3	16.1 ± 0.8	25.2 ± 1	19.8 ± 0.4	21.3 ± 3.1	16.8 ± 0.6	18.1 ± 0.8	18.1 ± 0.8	15.8 ± 0.3	10.4 ± 0.7	31 ± 0.41	17.5 ± 1.09		0.29	0.23	
COc1ccc(/C=C2\CCC/C(=C\c3ccc(OC)nc3)C2=O)cn1 [CA3]		> 60	> 60	30.6 ± 5.99	15.5 ± 0.42	> 60	> 60	29.6 ± 2.57	38.3 ± 1.11	> 60	47.4 ± 0.91	> 60	> 60	low toxicity		> 0.1	
